Source: the NIST ThermoML archive (doi:10.1021/je600580r)
± gives the expanded uncertainty stated by the source.

What was measured:
[1] = molar enthalpy of vaporization or sublimation; details: Liquid, DSC
[2] = Crystal; DTA
[3] = Molar enthalpy of transition or fusion; details: Crystal; DSC

Row | SMILES | molar enthalpy ([1]; 467 K) [kcal/mol] | Normal melting temperature [2] [°C] | Molar enthalpy of transition or fusion [3] [kcal/mol] | molar enthalpy ([1]; 461 K) [kcal/mol] | molar enthalpy ([1]; 466 K) [kcal/mol]
1 | CCNc1nc(NC(C)(C)C)nc(SC)n1 | 20.8 ± 2.39 | 99.2 ± 0.5 | 5.02 ± 0.956 | – | –
2 | CCNc1nc(NCC)nc(SC)n1 [2-methylthio-4,6-bis(ethylamino)-1,3,5-triazine] | – | 77.4 ± 0.5 | 5.74 ± 0.478 | 21 ± 1.91 | –
3 | CCNc1nc(NC(C)C)nc(SC)n1 [2-methylthio-4-ethylamino-6-isopropylamino-1,3,5-triazine] | – | 83.6 ± 0.5 | 6.21 ± 0.956 | – | 21.7 ± 1.91
